{
  "source": "patent US20060083680A1",
  "about": "“Diphenyl ether derivatives and their use for imaging serotonin transporters” (The Trustees of the University of Pennsylvania, priority 2004, published 2006)",
  "test": "Biodistribution in rats after iv injection (organs)",
  "format": "in vivo",
  "settings": "iv",
  "description": "Biodistribution in rats: Three rats per group were used for each biodistribution study. While under ether anesthesia, 0.2 mL of a saline solution containing 10 μCi of radioactive tracer was injected into the femoral vein. The rats were sacrificed at the time indicated by cardiac excision while under ether anesthesia. Organs of interest were removed and weighed, and the radioactivity was counted. The percent dose per organ was calculated by a comparison of the tissue counts to counts of 1% of the initial dose (100 times diluted aliquots of the injected material) measured at the same time.",
  "data": [
    {"smiles": "CN(C)Cc1ccccc1Oc1ccc([125I])cc1N", "note": "[[^125I]4, [^125I][^123I]2-(2-(Dimethylaminomethyl)phenoxy)-5-iodophenylamine]", "values": [
      {"measurement": "Biodistribution Kidney", "setting": "2 min", "value": "4.27 ± 0.90", "unit": "% dose/organ"},
      {"measurement": "Biodistribution Liver", "setting": "2 min", "value": "5.71 ± 0.88", "unit": "% dose/organ"},
      {"measurement": "Biodistribution Lung", "setting": "2 min", "value": "17.2 ± 2.32", "unit": "% dose/organ"},
      {"measurement": "Biodistribution Muscle", "setting": "2 min", "value": "25.9 ± 4.82", "unit": "% dose/organ"},
      {"measurement": "Biodistribution Skin", "setting": "2 min", "value": "4.45 ± 0.52", "unit": "% dose/organ"},
      {"measurement": "Biodistribution Spleen", "setting": "2 min", "value": "0.44 ± 0.08", "unit": "% dose/organ"},
      {"measurement": "Biodistribution Thyroid", "setting": "2 min", "value": "0.10 ± 0.02", "unit": "% dose/organ"},
      {"measurement": "Biodistribution Blood", "setting": "30 min", "value": "4.56 ± 0.20", "unit": "% dose/organ"},
      {"measurement": "Biodistribution Brain", "setting": "30 min", "value": "2.12 ± 0.15", "unit": "% dose/organ"},
      {"measurement": "Biodistribution Heart", "setting": "30 min", "value": "0.32 ± 0.04", "unit": "% dose/organ"},
      {"measurement": "Biodistribution Kidney", "setting": "30 min", "value": "2.67 ± 0.48", "unit": "% dose/organ"},
      {"measurement": "Biodistribution Liver", "setting": "30 min", "value": "7.10 ± 0.66", "unit": "% dose/organ"},
      {"measurement": "Biodistribution Lung", "setting": "30 min", "value": "3.56 ± 0.96", "unit": "% dose/organ"},
      {"measurement": "Biodistribution Muscle", "setting": "30 min", "value": "18.1 ± 0.55", "unit": "% dose/organ"},
      {"measurement": "Biodistribution Skin", "setting": "30 min", "value": "11.3 ± 0.78", "unit": "% dose/organ"},
      {"measurement": "Biodistribution Spleen", "setting": "30 min", "value": "0.84 ± 0.05", "unit": "% dose/organ"},
      {"measurement": "Biodistribution Thyroid", "setting": "30 min", "value": "0.15 ± 0.04", "unit": "% dose/organ"},
      {"measurement": "Biodistribution Blood", "setting": "60 min", "value": "3.89 ± 0.28", "unit": "% dose/organ"},
      {"measurement": "Biodistribution Brain", "setting": "60 min", "value": "1.74 ± 0.08", "unit": "% dose/organ"},
      {"measurement": "Biodistribution Heart", "setting": "60 min", "value": "0.20 ± 0.01", "unit": "% dose/organ"},
      {"measurement": "Biodistribution Kidney", "setting": "60 min", "value": "1.67 ± 0.21", "unit": "% dose/organ"},
      {"measurement": "Biodistribution Liver", "setting": "60 min", "value": "5.79 ± 0.70", "unit": "% dose/organ"},
      {"measurement": "Biodistribution Lung", "setting": "60 min", "value": "1.79 ± 0.06", "unit": "% dose/organ"},
      {"measurement": "Biodistribution Muscle", "setting": "60 min", "value": "12.9 ± 0.84", "unit": "% dose/organ"},
      {"measurement": "Biodistribution Skin", "setting": "60 min", "value": "13.9 ± 1.00", "unit": "% dose/organ"},
      {"measurement": "Biodistribution Spleen", "setting": "60 min", "value": "0.47 ± 0.02", "unit": "% dose/organ"},
      {"measurement": "Biodistribution Thyroid", "setting": "60 min", "value": "0.41 ± 0.11", "unit": "% dose/organ"},
      {"measurement": "Biodistribution Blood", "setting": "120 min", "value": "3.15 ± 0.44", "unit": "% dose/organ"},
      {"measurement": "Biodistribution Brain", "setting": "120 min", "value": "1.08 ± 0.06", "unit": "% dose/organ"},
      {"measurement": "Biodistribution Heart", "setting": "120 min", "value": "0.13 ± 0.01", "unit": "% dose/organ"},
      {"measurement": "Biodistribution Kidney", "setting": "120 min", "value": "1.24 ± 0.15", "unit": "% dose/organ"},
      {"measurement": "Biodistribution Liver", "setting": "120 min", "value": "4.90 ± 0.38", "unit": "% dose/organ"},
      {"measurement": "Biodistribution Lung", "setting": "120 min", "value": "0.88 ± 0.04", "unit": "% dose/organ"},
      {"measurement": "Biodistribution Muscle", "setting": "120 min", "value": "9.18 ± 0.65", "unit": "% dose/organ"},
      {"measurement": "Biodistribution Skin", "setting": "120 min", "value": "12.5 ± 2.14", "unit": "% dose/organ"},
      {"measurement": "Biodistribution Spleen", "setting": "120 min", "value": "0.27 ± 0.01", "unit": "% dose/organ"},
      {"measurement": "Biodistribution Thyroid", "setting": "120 min", "value": "0.96 ± 0.06", "unit": "% dose/organ"},
      {"measurement": "Biodistribution Blood", "setting": "240 min", "value": "3.12 ± 0.32", "unit": "% dose/organ"},
      {"measurement": "Biodistribution Brain", "setting": "240 min", "value": "0.33 ± 0.02", "unit": "% dose/organ"},
      {"measurement": "Biodistribution Heart", "setting": "240 min", "value": "0.08 ± 0.02", "unit": "% dose/organ"},
      {"measurement": "Biodistribution Kidney", "setting": "240 min", "value": "0.61 ± 0.09", "unit": "% dose/organ"},
      {"measurement": "Biodistribution Liver", "setting": "240 min", "value": "3.52 ± 0.20", "unit": "% dose/organ"},
      {"measurement": "Biodistribution Lung", "setting": "240 min", "value": "0.37 ± 0.03", "unit": "% dose/organ"},
      {"measurement": "Biodistribution Muscle", "setting": "240 min", "value": "6.27 ± 0.06", "unit": "% dose/organ"},
      {"measurement": "Biodistribution Skin", "setting": "240 min", "value": "12.6 ± 0.48", "unit": "% dose/organ"},
      {"measurement": "Biodistribution Spleen", "setting": "240 min", "value": "0.13 ± 0.02", "unit": "% dose/organ"},
      {"measurement": "Biodistribution Thyroid", "setting": "240 min", "value": "2.34 ± 1.16", "unit": "% dose/organ"},
      {"measurement": "Biodistribution Blood", "setting": "6 hrs", "value": "3.29 ± 0.27", "unit": "% dose/organ"},
      {"measurement": "Biodistribution Brain", "setting": "6 hrs", "value": "0.11 ± 0.01", "unit": "% dose/organ"},
      {"measurement": "Biodistribution Heart", "setting": "6 hrs", "value": "0.08 ± 0.00", "unit": "% dose/organ"},
      {"measurement": "Biodistribution Kidney", "setting": "6 hrs", "value": "0.55 ± 0.07", "unit": "% dose/organ"},
      {"measurement": "Biodistribution Liver", "setting": "6 hrs", "value": "3.59 ± 0.23", "unit": "% dose/organ"},
      {"measurement": "Biodistribution Lung", "setting": "6 hrs", "value": "0.25 ± 0.01", "unit": "% dose/organ"},
      {"measurement": "Biodistribution Muscle", "setting": "6 hrs", "value": "5.01 ± 0.42", "unit": "% dose/organ"},
      {"measurement": "Biodistribution Skin", "setting": "6 hrs", "value": "15.5 ± 1.50", "unit": "% dose/organ"},
      {"measurement": "Biodistribution Spleen", "setting": "6 hrs", "value": "0.11 ± 0.01", "unit": "% dose/organ"},
      {"measurement": "Biodistribution Thyroid", "setting": "6 hrs", "value": "2.68 ± 0.66", "unit": "% dose/organ"},
      {"measurement": "Biodistribution Blood", "setting": "11 hrs", "value": "2.52 ± 0.47", "unit": "% dose/organ"},
      {"measurement": "Biodistribution Brain", "setting": "11 hrs", "value": "0.02 ± 0.00", "unit": "% dose/organ"},
      {"measurement": "Biodistribution Heart", "setting": "11 hrs", "value": "0.06 ± 0.00", "unit": "% dose/organ"},
      {"measurement": "Biodistribution Kidney", "setting": "11 hrs", "value": "0.40 ± 0.10", "unit": "% dose/organ"},
      {"measurement": "Biodistribution Liver", "setting": "11 hrs", "value": "2.64 ± 0.19", "unit": "% dose/organ"},
      {"measurement": "Biodistribution Lung", "setting": "11 hrs", "value": "0.16 ± 0.00", "unit": "% dose/organ"},
      {"measurement": "Biodistribution Muscle", "setting": "11 hrs", "value": "4.01 ± 0.85", "unit": "% dose/organ"},
      {"measurement": "Biodistribution Skin", "setting": "11 hrs", "value": "10.9 ± 4.62", "unit": "% dose/organ"},
      {"measurement": "Biodistribution Spleen", "setting": "11 hrs", "value": "0.09 ± 0.01", "unit": "% dose/organ"},
      {"measurement": "Biodistribution Thyroid", "setting": "11 hrs", "value": "5.15 ± 1.49", "unit": "% dose/organ"},
      {"measurement": "Biodistribution Blood", "setting": "24 hrs", "value": "0.70 ± 0.06", "unit": "% dose/organ"},
      {"measurement": "Biodistribution Brain", "setting": "24 hrs", "value": "0.01 ± 0.00", "unit": "% dose/organ"},
      {"measurement": "Biodistribution Heart", "setting": "24 hrs", "value": "0.02 ± 0.00", "unit": "% dose/organ"},
      {"measurement": "Biodistribution Kidney", "setting": "24 hrs", "value": "0.17 ± 0.02", "unit": "% dose/organ"},
      {"measurement": "Biodistribution Liver", "setting": "24 hrs", "value": "1.83 ± 0.07", "unit": "% dose/organ"},
      {"measurement": "Biodistribution Lung", "setting": "24 hrs", "value": "0.04 ± 0.00", "unit": "% dose/organ"},
      {"measurement": "Biodistribution Muscle", "setting": "24 hrs", "value": "1.13 ± 0.13", "unit": "% dose/organ"},
      {"measurement": "Biodistribution Skin", "setting": "24 hrs", "value": "4.02 ± 0.26", "unit": "% dose/organ"},
      {"measurement": "Biodistribution Spleen", "setting": "24 hrs", "value": "0.05 ± 0.01", "unit": "% dose/organ"},
      {"measurement": "Biodistribution Thyroid", "setting": "24 hrs", "value": "4.61 ± 1.21", "unit": "% dose/organ"}
    ]}
  ]
}
